Drawing on ChEMBL document CHEMBL3886751, “Disubstituted beta-lactones as inhibitors of N-acylethanolamine acid amidase (NAAA)” (2016), this text covers IC50 for 8 compounds.

Test [1] deals with T1, N-acylethanolamine-hydrolyzing acid amidase (Rattus norvegicus, UniProt Q5KTC7).
T1 sequence (Q5KTC7 whole entry): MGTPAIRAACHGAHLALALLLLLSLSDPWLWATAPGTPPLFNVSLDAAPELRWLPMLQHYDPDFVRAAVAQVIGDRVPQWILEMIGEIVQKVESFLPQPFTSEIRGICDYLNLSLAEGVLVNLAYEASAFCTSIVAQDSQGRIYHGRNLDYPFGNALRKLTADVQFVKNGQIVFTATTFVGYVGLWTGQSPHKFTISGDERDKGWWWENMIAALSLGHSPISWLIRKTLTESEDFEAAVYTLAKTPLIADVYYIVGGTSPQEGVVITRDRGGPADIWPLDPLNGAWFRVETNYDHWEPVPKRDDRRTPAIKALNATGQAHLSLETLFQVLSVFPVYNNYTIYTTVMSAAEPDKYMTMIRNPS
Kind of test: Enzymatic Assay: Lysosomal NAAA protein preparation were obtained by homogenizing male Sprague-Dawley rat lungs (Charles River) in 20 mM Tris-HCl buffer pH 7.4 containing 0.32M sucrose. Samples were centrifuged at 800×g for 15 minutes at 4° C. Supernatants were then centrifuged at 12,000 g for 30 minutes at 4° C. Pellets were then resuspended in PBS pH 7.4 and subjected to a freeze/thaw cycle at −80° C. The suspension was finally centrifuged at 105,000×g for 1 hour at 4° C. The supernatant was then used in the enzymatic assay.

Test [2] has as its target T2, N-acylethanolamine-hydrolyzing acid amidase (Homo sapiens, UniProt Q02083).
T2 sequence (Q02083 whole entry): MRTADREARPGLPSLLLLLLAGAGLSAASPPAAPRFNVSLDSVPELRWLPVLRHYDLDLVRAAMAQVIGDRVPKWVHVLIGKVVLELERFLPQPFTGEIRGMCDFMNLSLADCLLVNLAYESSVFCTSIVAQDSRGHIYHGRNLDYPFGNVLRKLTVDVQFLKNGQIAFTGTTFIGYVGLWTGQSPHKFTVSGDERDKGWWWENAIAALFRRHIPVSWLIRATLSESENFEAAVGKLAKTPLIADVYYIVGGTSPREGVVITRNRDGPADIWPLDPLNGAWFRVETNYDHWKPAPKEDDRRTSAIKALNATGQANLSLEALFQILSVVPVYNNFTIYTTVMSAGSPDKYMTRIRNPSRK
In words: UPLC/MS Assay: NAAA protein preparation (10 ug) was pre-incubated with various concentrations of test compound or vehicle control in 100 mM NaH2PO4, 100 mM Tri Sodium Citrate Dehydrate, 0.1% Triton-X 100, 3 mM DTT, pH 4.5 for 30 min at 37° C. Duplicate samples were then incubated with 50 uM C17:1 10-cis-heptadecenoylethanolamide (Avanti Polar Lipids, Alabaster, Ala. USA) at 37° C. for 30 minutes. The reaction was terminated by the addition of 0.2 mL of cold methanol containing 1 nmol of heptadecanoic acid (NuChek Prep, Elysian, Minn. USA) as internal standard. Samples were then analyzed by UPLC/MS. Heptadecenoic and heptadecanoic acids were eluted on an Acquity UPLC BEH C18 column (50 mm length, 2.1 mm i.d., 1.7 um pore size, Waters) isocratically at 0.5 mL/min for 1.5 min with a solvent mixture of 95% methanol and 5% water, both containing 0.25% Acetic Acid and 5 mM Ammonium Acetate. The column temperature was 40° C. Electrospray ionization was in the negative mode, capillary voltage was 0.5 kV, […], desolvation temperature was 500° C. N2 was used as drying gas at a flow rate of 1000 L/hour and a temperature of 500° C. The [M-H]- ion was monitored in the selected-ion monitoring mode (m/z values: heptadecenoic acid 267.37, heptadecanoic acid 269.37). Calibration curves were generated using commercial heptadecenoic acid (NuCheck Prep). […].

Test [3] has as its target T2, N-acylethanolamine-hydrolyzing acid amidase. In words: Fluorogenic Assay: The assay was run in Optiplate 96-wells black plates, in a total reaction volume of 200 μL. NAAA protein preparation (4.0 μg) was pre-incubated for 10 min with various concentrations of test compounds or vehicle control (5% DMSO) in 100 mM citrate/phosphate buffer (pH 4.5) containing 3.0 mM DTT, 0.1% Triton X-100, 0.05% BSA, 150 mM NaCl. N-(4-methyl-2-oxo-chromen-7-yl)-hexadecanamide was used as a substrate (5.0 μM) and the reaction carried over for 30 min at 37° C. The samples were then read in a Perkin Elmer Envision plate reader using an excitation wavelength of 360 nm and emission 460 nm.

Regarding `C[C@@H]1OC(=O)[C@@H]1NC(=O)OCc1ccc(-c2ccc(C(F)(F)F)cc2)cc1`, in test [1], the IC50 – broadly, the concentration at which inhibition is half-maximal – was determined as 24 nM.
As to `CC(OC(=O)N[C@H]1C(=O)O[C@H]1C)c1ccc(-c2ccccc2)cc1` (mixture of isomers), the IC50 worked out at 50 nM in test [1] and 10 nM in test [2].
In test [3], `CC[C@@H]1OC(=O)[C@@H]1NC(=O)OCc1ccc(-c2ccccc2)cc1` (relative stereo) yielded an IC50 of 15 nM.
In turn, `CC[C@H]1OC(=O)[C@@H]1NC(=O)OCc1ccc(-c2ccccc2)cc1` (relative stereo) gave an IC50 in test [3] of 6 nM.
In test [3], `CC(C)(C)[C@@H]1OC(=O)[C@@H]1NC(=O)OCc1ccc(-c2ccccc2)cc1` (relative stereo) yielded an IC50 of 897 nM.
On the same count and under the same terms, under `CC(C)[C@@H]1OC(=O)[C@@H]1NC(=O)OCc1ccc(-c2ccccc2)cc1` (relative stereo) stands 37 nM; under `CC(C)[C@H]1OC(=O)[C@@H]1NC(=O)OCc1ccc(-c2ccccc2)cc1` (relative stereo), 23 nM; under `CC(C)(C)[C@H]1OC(=O)[C@@H]1NC(=O)OCc1ccc(-c2ccccc2)cc1` (relative stereo), 465 nM.
